Measurements reported in patent US20240051952A1, “HMOX1 INDUCERS” (Mitobridge Inc., priority 2019, published 2024).

System: Human Heme Oxygenase-1 (HMOX-1)
Experiment: ELISA assay to measure human heme oxygenase-1 (HMOX-1) in HepG2 lysate
Format: cell-based
Settings: for Maximum Fold induction: fold change of human HMOX1 protein levels relative to DMSO control, HepG2
Method: Example 143. ELISA Assay to Measure Human Heme Oxygenase-1 (HMOX-1) in HepG2 lysate
Reagents and Technical Notes:
ELISA capture antibody, standard HO-1, detection antibody and streptavidin HRP were supplied in the DuoSet IC Human total HO-1 ELISA from R&D systems (DYC3776-2). The substrate cocktail was KPL LumiGLO reserve Chemiluminescent Substrate (54-71-00). PBS was Corning Cellgro Cell Culture (21-040-CV). 10×PBS+0.05% tween20 (PBST) was from KPL.
All incubations of the plate were at room temperature (20° C.) in a closed drawer.
The ELISA plate was processed manually. All loadings were with a multichannel pipet. Plates were emptied by shaking into the sink and tapping onto paper towels to remove any remaining reagent. Plate washing was accomplished by loading all wells with PBS+0.05% tween20 (PBST) using a squirt bottle, shaking the PBST out and tapping the plate onto paper towels.
Preparation of the ELISA Plate: • 1. anti-HO-1 capture antibody was 1440 μg/ml after reconstitution in PBS. This antibody was diluted to 8 μg/ml in PBS and 50 μl per well was added to a 384 well greiner “lumitrac 200” plate. Incubated overnight. • 2. The plate was emptied and 100 μl PBS+1% BSA added to all wells. Incubated 90 minutes at room temperature.
Preparation of HepG2 Lysate: • 1. Cells were cultured in a 96-well tissue culture plate washed with PBS and then the plate frozen at −70° C. overnight. Plates were allowed to warm to ice temperature in an ice bucket. 20 μl of PBS, 0.5% Triton X100, 1 mM EDTA with 1×HALT™ protease inhibitors was added to each well and the plates incubated on ice for 1 hour. • 2. The lysates were frozen at −20° C. overnight.
Measurement of HMOX1 (“HO-1”) • 1. In a polypropylene 384 well plate, human HO-1(after reconstitution in PBS+0.5% Triton+1 mM EDTA) was serially diluted from 20 ng/ml 2-fold in PBS+0.5% triton-X100, 1 mM EDTA to make a 12-point standard curve including a zero point. • 2. In a polypropylene 96 well plate, HepG2 lysate was diluted 1 to 20 in Diluent #4 from DUOSET kit in which the assay standard is also diluted. • 3. The PBS+1% BSA was emptied from the ELISA plate and 30 μl of all samples and standards were added (duplicates recommended). The plate was incubated 90 minutes. • 4. Emptied plate and washed 4 times with PBST. • 5. Diluted HO-1 detection antibody to 200 ng/ml in PBS+1% BSA and added 30 μl to all wells. Incubated 90 minutes. • 6. Emptied plate and washed 4 times with PBST. • 7. Added 30 μl streptavidin HRP at 1/200 in PBS+1% BSA (stock streptavidin concentration not specified) to all wells. Incubated 30 minutes. • 8. Emptied plate and washed 4 times with PBST. • 9. Diluted Lumiglo reserve reagent two parts buffer to one part lumiglo substrate. Added 30 μl to all wells. Incubated 5 minutes. • 10. Measured chemiluminescence on spectramax M5 using 150 ms integration.
Table 1 below lists EC50 and fold changes of human HMOX1 protein levels relative to DMSO control upon treatment with representative compounds.

SMILES	Maximum Fold induction	EC50 (human HMOX1 protein in HepG2 lysate, ELISA, * = average of 2 or more EC50 determinations, NA = Not Active)
COCCOc1ccc2nc(Nc3nc4cc(C(=O)O)ccc4n3C)oc2c1 [Example 55, 2-((6-(2-methoxyethoxy)benzo[d]oxazol-2-yl)amino)-1-methyl-1H-benzo[d]imidazole-5-carboxylic acid]	15	4.5 µM
O=C(O)c1ccc2c(c1)nc(Nc1nc3ccc(OC(F)(F)F)cc3o1)n2CC1(O)COC1 [Example 93, 1-((3-hydroxyoxetan-3-yl)methyl)-2-((6-(trifluoromethoxy)benzo[d]oxazol-2-yl)amino)-1H-benzo[d]imidazole-5-carboxylic acid]	22	–
Cn1c(Nc2nc3ccccc3o2)nc2cc(C(=O)NCCOCC(C)(C)O)ccc21 [Example 27, 2-(benzo[d]oxazol-2-ylamino)-N-(2-(2-hydroxy-2-methylpropoxy)ethyl)-1-methyl-1H-benzo[d]imidazole-5-carboxamide]	17	–
Cn1c(Nc2nc3cc(C(=O)O)ccc3n2C)nc2cc(OC(F)(F)F)ccc21 [Example 15, 1-methyl-2-((1-methyl-5-(trifluoromethoxy)-1H-benzo[d]imidazol-2-yl)amino)-1H-benzo[d]imidazole-5-carboxylic acid]	11-13	–
COCCNC(=O)c1cc2nc(Nc3nc4ccc(OC(F)(F)F)cc4o3)n(C)c2cc1F [Example 71, 6-fluoro-N-(2-methoxyethyl)-1-methyl-2-((6-(trifluoromethoxy)benzo[d]oxazol-2-yl)amino)-1H-benzo[d]imidazole-5-carboxamide]	8-12	–
Cn1c(Nc2nc3ccc(OCCO)cc3o2)nc2cc(C(=O)O)ccc21 [Example 101, 2-((6-(2-hydroxyethoxy)benzo[d]oxazol-2-yl)amino)-1-methyl-1H-benzo[d]imidazole-5-carboxylic acid]	21	–
COCCNC(=O)c1ccc2c(c1)nc(Nc1nc3ccc(C(C)C)cc3o1)n2C [Example 60, 2-((6-isopropylbenzo[d]oxazol-2-yl)amino)-N-(2-methoxyethyl)-1-methyl-1H-benzo[d]imidazole-5-carboxamide]	42-56	–
Cn1c(Nc2nc3ccc(OC(F)(F)F)cc3o2)nc2cc(C(=O)O)c(F)cc21 [Example 70, 6-fluoro-1-methyl-2-((6-(trifluoromethoxy)benzo[d]oxazol-2-yl)amino)-1H-benzo[d]imidazole-5-carboxylic acid]	8-11	–
COCCNC(=O)c1ccc2c(c1)nc(Nc1nc3ccc(OCCO)cc3o1)n2C [Example 102, 2-((6-(2-hydroxyethoxy)benzo[d]oxazol-2-yl)amino)-N-(2-methoxyethyl)-1-methyl-1H-benzo[d]imidazole-5-carboxamide]	26-40	–
Cn1c(Nc2nc3ccc(C(F)(F)F)cc3o2)nc2cc(C(=O)NCCO)ccc21 [Example 33, N-(2-hydroxyethyl)-1-methyl-2-((6-(trifluoromethyl)benzo[d]oxazol-2-yl)amino)-1H-benzo[d]imidazole-5-carboxamide]	32-45	–
CN1CC(c2ccc3nc(Nc4nc5cc(C(=O)NCCOCCO)ccc5n4C)oc3c2)OC1=O (stereo not shown) [Example 135, N-(2-(2-hydroxyethoxy)ethyl)-1-methyl-2-((6-(3-methyl-2-oxooxazolidin-5-yl)benzo[d]oxazol-2-yl)amino)-1H-benzo[d]imidazole-5-carboxamide]	1	–
Cl.Cn1c(Nc2nc3ccc(OCCO)cc3o2)nc2cc(C(=O)NCCN)ccc21 [Example 105, N-(2-aminoethyl)-2-((6-(2-hydroxyethoxy)benzo[d]oxazol-2-yl)amino)-1-methyl-1H-benzo[d]imidazole-5-carboxamide hydrochloride]	36	–
Cn1c(Nc2nc3cc(F)c(C(F)(F)F)cc3o2)nc2cc(C(=O)NOCCO)ccc21 [Example 130, 2-((5-fluoro-6-(trifluoromethyl)benzo[d]oxazol-2-yl)amino)-N-(2-hydroxyethoxy)-1-methyl-1H-benzo[d]imidazole-5-carboxamide]	42	–
Cn1c(Nc2nc3ccc(-c4cscn4)cc3o2)nc2cc(C(=O)NCCOCCO)ccc21 [Example 134, N-(2-(2-hydroxyethoxy)ethyl)-1-methyl-2-((6-(thiazol-4-yl)benzo[d]oxazol-2-yl)amino)-1H-benzo[d]imidazole-5-carboxamide]	42-70	–
CN(C)CC(=O)NCCNC(=O)c1ccc2c(c1)nc(Nc1nc3ccccc3o1)n2C [Example 19, 2-(benzo[d]oxazol-2-ylamino)-N-(2-(2-(dimethylamino)acetamido)ethyl)-1-methyl-1H-benzo[d]imidazole-5-carboxamide]	14-26	–
Cn1c(Nc2nc3ccc(N4CCOCC4)cc3o2)nc2cc(C(=O)NCCOCCO)ccc21 [Example 136, N-(2-(2-hydroxyethoxy)ethyl)-1-methyl-2-((6-morpholinobenzo[d]oxazol-2-yl)amino)-1H-benzo[d]imidazole-5-carboxamide]	36	–
COCCNC(=O)c1ccc2c(c1)nc(Nc1nc3ccccc3[nH]1)n2C [Example 12, 2-((1H-benzo[d]imidazol-2-yl)amino)-N-(2-methoxyethyl)-1-methyl-1H-benzo[d]imidazole-5-carboxamide]	5.5	–
Cn1c(Nc2nc3ccc(OCCO)cc3o2)nc2cc(C(=O)NOCCO)ccc21 [Example 129, N-(2-hydroxyethoxy)-2-((6-(2-hydroxyethoxy)benzo[d]oxazol-2-yl)amino)-1-methyl-1H-benzo[d]imidazole-5-carboxamide]	54-58	–
O=C(O)c1ccc2c(c1)nc(Nc1nc3ccc(OC(F)(F)F)cc3o1)n2CC1CCOC1 (stereo not shown) [Example 87, 1-((tetrahydrofuran-3-yl)methyl)-2-((6-(trifluoromethoxy)-benzo[d]oxazol-2-yl)amino)-1H-benzo[d]imidazole-5-carboxylic acid]	21	–
Cn1c(Nc2nc3ccc(OC(F)(F)F)cc3o2)nc2cc(C(=O)NCCO)ccc21 [Example 53, N-(2-hydroxyethyl)-1-methyl-2-((6-(trifluoromethoxy)benzo[d]oxazol-2-yl)amino)-1H-benzo[d]imidazole-5-carboxamide]	29-38	–
Cn1c(Nc2nc3ccc(C(F)(F)F)cc3o2)nc2cc(C(=O)NCCOCCO)ccc21 [Example 34, N-(2-(2-hydroxyethoxy)ethyl)-1-methyl-2-((6-(trifluoromethyl)benzo[d]oxazol-2-yl)amino)-1H-benzo[d]imidazole-5-carboxamide]	31-36	–
Cn1c(Nc2nc3ccccc3o2)nc2cc(C(=O)NCC(O)CO)ccc21 (stereo not shown) [Example 24, 2-(benzo[d]oxazol-2-ylamino)-N-(2,3-dihydroxypropyl)-1-methyl-1H-benzo[d]imidazole-5-carboxamide]	49	–
Cn1c(Nc2nc3ccc(OC(F)(F)F)cc3o2)nc2cc(C(=O)NCC3(O)COC3)ccc21 [Example 52, N-((3-hydroxyoxetan-3-yl)methyl)-1-methyl-2-((6-(trifluoromethoxy)benzo[d]oxazol-2-yl)amino)-1H-benzo[d]imidazole-5-carboxamide]	27	–
Cn1c(Nc2nc3ccc(OC(F)(F)F)cc3o2)nc2cc(C(=O)NOCCO)ccc21 [Example 126, N-(2-hydroxyethoxy)-1-methyl-2-((6-(trifluoromethoxy)benzo[d]oxazol-2-yl)amino)-1H-benzo[d]imidazole-5-carboxamide]	33-37	–
